# Experimental data reported in patent publication US6133323A, “Process for enhancing immune response in animals using β-carotene as a dietary supplement” (priority 1998, dated 2000).
# Like-named read-outs stand apart in the source and are kept apart here.
# What was measured:
# [1] = dog, in vivo
# lymphocyte blastogenesis = test: Mitogen-induced lymphocyte blastogenesis (lymphocyte proliferation); assay type: in vivo, female Beagles (dogs); conditions: dog, β-carotene feeding
# Description: (§1) Female Beagles (4 to 5 mo old) were supplemented daily with 0, 25, 50 or 100 mg of β-carotene to study the role of dietary β-carotene in enhancing the cell-mediated and humoral immune systems of the dog. The following parameters were assessed in all the animals or in the peripheral blood lymphocytes: (1) delayed-type hypersensitivity (DTH) against PHA (nonspecific immunity) and vaccine (specific immunity), (2) lymphocyte proliferation, (3) lymphocyte populations and (4) immunoglobulins (Ig).
# [2] = assay type: in vivo, female Beagles (dogs); conditions: dog, daily supplementation
# Description: as §1
# [3] = pigs and rodents; cited from earlier work
# [4] = design: species or system female Beagle dogs; conditions: dog, in vivo
# Description: (§2) Female Beagle dogs (18 to 19 months of age; 7 to 9 kg body weight) were used in Examples 1-3 and were fed a basal diet (The lams Co., Lewisburg, Ohio.) which met or exceeded the requirement for all essential nutrients. Animals were housed indoors in light--(14 hr light; 10 hr dark) and temperature-controlled rooms.
# (§3) All procedures were conducted under dim light. Duplicate aliquots of plasma, each leukocyte homogenate, and each leukocyte subcellular fraction were extracted with a 1:1 mixture of diethyl ether and petroleum ether in the presence of BHT. The ether phase was removed and dried under a stream of nitrogen.
# In this Example, the dogs (n=6/treatment) were fed daily at 0800 hr for 7 consecutive days with 0, 12.5, 25, 50 or 100 mg β-carotene. The β-carotene was top-dressed on the food and fed in the morning meal. Blood was sampled once daily on day 0 (immediately prior to the first dose) and subsequently at 6 hr after each dosing (days 1 through 7). […] Plasma was isolated and analyzed for concentrations of β-carotene.
# [5] = system: peripheral blood lymphocytes; design: species or system female short hair Tabby cats; conditions: in vivo
# Description: (§4) Mature female short hair Tabby cats (7 to 8 months of age; 1.5 to 2.0 kg body weight) were used for Examples 4-6and were fed a basal diet (The lams Co., Lewisburg, Ohio.) which met or exceeded the requirement for all essential nutrients. Animals were group-housed indoors in light- and temperature-controlled rooms.
# (§5) This example studied the uptake of β-carotene by blood lymphocytes in cats. The cats (n=8/treatment) were fed 0, 5 or 10 mg of β-carotene daily for 14 days. Blood was sampled on days 7 and 14 with the aid of a blood collection vacutainer set (Becton Dickenson, Franklin Lakes, N.J.) in sedated animals (10 mg ketamine and 0.1 mg of acepromazine/kg body weight). Blood lymphocytes and neutrophils were separated by density gradient centrifugation. Cell numbers were enumerated. Lymphocytes were resuspended in PBS containing 3% sodium ascorbate as an antioxidant. An aliquot of the cell suspension was sonicated for 30 seconds to disrupt the cells. The lymphocyte homogenate was extracted for the HPLC analysis of β-carotene. Adequate numbers of neutrophils could not be obtained; therefore, no data are available in quantitating the uptake of β-carotene by circulating neutrophils.
# [6] = cited from earlier work
# [7] = system: subcellular fractions of blood lymphocytes; design: species or system female Beagle dogs; conditions: dog, in vivo
# Description: as §3
# (§6) This example was designed to study the uptake of β-carotene in dogs by blood lymphocytes. The dogs (n=8/treatment) were fed 0, 50 or 100 mg of β-carotene daily for 30 days. Blood was sampled from all dogs via the jugular vein on days 10, 20 and 30. Blood lymphocytes and neutrophils were separated by density gradient centrifugation. Cell numbers were enumerated. Lymphocytes and neutrophils were resuspended in PBS containing 3% sodium ascorbate as an antioxidant. An aliquot of the cell suspension was sonicated for 30 seconds to disrupt the cells. The leukocyte homogenates were extracted for HPLC analysis of β-carotene.
# (§7) On day 30, a larger aliquot of blood was taken and leukocyte suspensions prepared as described above for subsequent subcellular fractionation. Cells were disrupted by sonication for 20 seconds in 5 volumes of 0.25 M sucrose. Sodium ascorbate was added as the antioxidant. The homogenate was centrifuged (600×g for 10 min at 4° C.) and the nuclear pellet separated from the supernatant. The postnuclear supernatant was centrifuged (17,300×g for 20 min at 4° C.) to separate the mitochondrial fraction. The postmitochondrial supernatant was centrifuged (102,000×g for 60 min at 4° C.) to separate the microsomal from the cytosolic fraction. Each subcellular fraction was analyzed for β-carotene content by HPLC.
# [8] = system: subcellular fractions of blood neutrophils; design: species or system female Beagle dogs; conditions: dog, in vivo
# Description: as §3, §6, §7
# in vivo [9] = conditions: dog, po
# in vivo [10] = test: in vivo; design: species or system female short hair Tabby cats; conditions: po
# Description: as §4
# To study the uptake of oral β-carotene in cats given a single dose of β-carotene orally, cats (n=6/treatment) were given once perorally 0, 10, 20 or 50 mg of β-carotene (10% cold water dissolvable; BASF Corp., Ludwigshafen, Germany). The appropriate dose of β-carotene was dissolved in 0.6 ml of water and fed orally by using a feeding syringe. […] These cats were fed once with 50 mg β-carotene and blood sampled at 0 (immediately prior to β-carotene feeding), 3, 6, 10, 16, 24, 30 and 36 hr.
# The results from this example are illustrated in FIG. 14 and show peak concentrations of β-carotene generally occurring between 10 and 16 hr post-dosing. Subsequently, blood was sampled from the remaining cats at 0, 12, 24, 30, 36, 42, 48 and 72 hr after dosing. Plasma was similarly separated and analyzed.
# CD8 cells = test: Lymphocyte populations (CD8 cells); assay type: in vivo, female Beagles (dogs); conditions: dog, 20 mg daily, weeks 2 and 4
# Description: (§8) The following parameters were assessed in all the animals or in the peripheral blood lymphocytes: (1) delayed-type hypersensitivity (DTH) against PHA (nonspecific immunity) and vaccine (specific immunity), (2) lymphocyte proliferation, (3) lymphocyte populations and (4) immunoglobulins (Ig).
# blood neutrophils = system: blood neutrophils; design: species or system female Beagle dogs; conditions: dog, in vivo
# Description: as §2, §3, §6
# blood lymphocytes = system: blood lymphocytes; design: species or system female Beagle dogs; conditions: dog, in vivo
# Description: as §2, §3, §6
# [11] = Blood uptake of β-carotene in dogs after a single oral dose (plasma, HPLC); conditions: dog
# [12] = system: immunoglobulins (IgG, IgM, total IgG); test: Plasma immunoglobulins (Ig); assay type: in vivo, female Beagles (dogs); conditions: dog
# Description: as §8
# [13] = system: subcellular lymphocyte fractions; design: species or system female short hair Tabby cats; conditions: in vivo
# Description: as §4, §5
# A larger aliquot was used to prepare subcellular lymphocyte fractions. Lymphocytes were disrupted by sonication for 20 seconds in 5 volumes of 0.25 M sucrose. Sodium ascorbate was added as the antioxidant. The homogenate was centrifuged (600×g for 10 min at 4° C.) and the crude nuclear pellet separated from the supernatant. The postnuclear supernatant obtained earlier was centrifuged (7,300×g for 20 min at 4° C.) to separate the mitochondrial fraction. The postmitochondrial supernatant was centrifuged (102,000×g for 60 min at 4° C.) to separate the microsomal from the cytosolic fraction. Each subcellular fraction was analyzed for β-carotene content by HPLC.
# DTH response to PHA = test: Delayed-type hypersensitivity (DTH) against PHA (nonspecific immunity); assay type: in vivo, female Beagles (dogs); conditions: dog, 50 mg β-carotene daily, 7 weeks
# Description: as §1
# in vivo [14] = test: in vivo; design: species or system female short hair Tabby cats
# Description: as §4
# In this Example, the cats (n=6/treatment) were dosed daily at 0800 hr for 6 consecutive days with 0, 1, 2, 5 or 10 mg β-carotene. Blood was sampled once daily on day 0 (immediately prior to the first dose) and subsequently at 12 hr after each dosing (days 1 through 6). This blood sampling time was chosen based on the results obtained in Example 5. Plasma was isolated and analyzed for concentrations of β-carotene.
# IL-2 = IL-2 production; assay type: in vivo, female Beagles (dogs); conditions: dog, β-carotene feeding
# CD4+ cells = test: Lymphocyte populations (CD4+ cells); assay type: in vivo, female Beagles (dogs); conditions: dog, 20 or 50 mg daily, wk 8
# Description: as §8
# DTH response to vaccine = test: Delayed-type hypersensitivity (DTH) against vaccine (specific immunity); assay type: in vivo, female Beagles (dogs); conditions: dog, 20 or 50 mg β-carotene daily, 7 weeks
# Description: as §8
compound,measurement,setting,value
CC1=C(/C=C/C(C)=C/C=C/C(C)=C/C=C/C=C(C)/C=C/C=C(C)/C=C/C2=C(C)CCCC2(C)C)C(C)(C)CCC1 [β-carotene],plasma β-carotene of dogs lower than that observed in cats,[1],10-16 fold
same,"time of peak blood β-carotene, dogs compared with cats",[1],occurred earlier in dogs than in cats
same,half-life of plasma β-carotene,[1]; po,~4 h
same,mitogen-induced lymphocyte blastogenesis,lymphocyte blastogenesis,did not influence
same,effect on plasma retinol,[2],did not influence
same,effect on plasma α-tocopherol,[2],did not influence
same,concentrations of β-carotene,[3],very low concentrations
same,"increase in daily concentrations of plasma β-carotene, 100 mg vs other doses",[4],steepest increase
same,plasma β-carotene after the last dose relative to after the first dose,[4],2.5-4 fold
same,"accumulation of β-carotene in lymphocytes, 10 mg vs 5 mg",[5],did not have higher accumulation
same,day of maximal uptake of dietary β-carotene by lymphocytes,[5],≤ 7 days
same,uptake of β-carotene by blood lymphocytes on day 14,[5],no additional increases
same,β-carotene in peripheral blood lymphocytes on day 0,[5],undetectable
same,β-carotene in the liver and milk of dogs,[6]; earlier studies,only trace amounts
same,β-carotene in the circulating blood and organs of dogs,[6]; some studies,low to undetectable amounts
same,share of total lymphocyte β-carotene in the cytosol,[7],52-62%
same,share of total lymphocyte β-carotene in the microsomes,[7],16-23%
same,share of total lymphocyte β-carotene in the mitochondria,[7],14-17%
same,share of total lymphocyte β-carotene in the nuclei,[7],6-8%
same,β-carotene in lymphocyte subcellular fractions of dogs compared with cats,[7],substantially lower
same,dose effect on β-carotene uptake by neutrophil subcellular fractions,[8],No significant dose effect
same,β-carotene in nuclei of blood neutrophils,[8],not detected
same,Tmax,in vivo [9],3 to 6 h
same,half-life,in vivo [9]; half-life of plasma β-carotene,~3 h
same,half-life of plasma β-carotene,in vivo [10]; cat,about 24 hr
same,half-life,"in vivo [10]; cat, half-life of plasma β-carotene",12 to 18 h
same,Tmax,"in vivo [10]; cat, time of peak concentrations of plasma β-carotene",12 h
same,Tmax,"in vivo [10]; cat, time of peak concentrations of β-carotene (post-dosing)",10 to 16 h
same,"plasma β-carotene concentration, 50 mg vs other doses",in vivo [10],highest (P<0.01)
same,population of CD8 cells,CD8 cells,elevated population
same,neutrophil β-carotene concentrations on day 30,blood neutrophils,no further increase
same,"treatment difference in β-carotene concentrations in lymphocytes, 50 versus 100 mg",blood lymphocytes,no significant treatment difference
same,β-carotene in lymphocytes of dogs lower than that observed in cats,blood lymphocytes,20-30 fold
same,β-carotene in peripheral blood lymphocytes on day 0,blood lymphocytes,undetectable
same,Tmax,[11],6 h
same,dose dependence of Ig increases,[12]; 0 to 20 mg,dose dependent
same,antibody response for both Ig at 20 mg,[12]; 20 mg daily,greatest antibody response
same,Ig response at the highest level (50 mg),[12]; 50 mg daily,did not produce a further increase
same,"concentrations of IgG, IgM and total IgG",[12]; as early as 1 wk after dietary supplementation,increased significantly
same,"accumulation of β-carotene in all fractions, day 14 vs day 7",[13],no additional accumulation
same,"concentrations of β-carotene in lymphocyte fractions, 10 mg vs 5 mg",[13],did not have higher concentrations
same,influence of dose or length of supplementation on relative β-carotene profiles in lymphocyte fractions,[13],generally were not influenced
same,relative proportion of β-carotene in the microsomes of lymphocytes,[13],20-35%
same,β-carotene uptake in the nuclei compared to unsupplemented controls,[13],significant
same,DTH response to PHA,DTH response to PHA,greatest response
same,"increase in daily changes in plasma β-carotene, 10 mg vs other doses",in vivo [14],steepest increase
same,plasma β-carotene after the last dose relative to after one dose,in vivo [14],1.5-2 fold
same,concentration at 12 h,"in vivo [14]; cat, po",192 ± 58 ng/mL
same,IL-2 production,IL-2,did not influence
same,population of CD4+ cells compared to controls,CD4+ cells,elevated population
same,DTH response to vaccine,DTH response to vaccine,significantly higher DTH response
carotene,"carotene in the blood, liver and milk of dogs","[6]; dog, in vivo","trace amounts, if any"
